# Test results as given in patent US11319289B2, “5-hydroxy pyridine-based compound for use as P2X1 and P2X3 receptor antagonist and pharmaceutical composition comprising same” (GWANGJU INSTITUTE OF SCIENCE AND TECHNOLOGY, priority 2017, dated 2022).
# Entries after “also recorded” stand apart in the source; their conditions may differ. Like-named read-outs stand apart in the source and are kept apart here.
# Tests used:
# [1] = target: T1, human P2X7 receptor (hP2X7) (Homo sapiens, UniProt Q99572); assay: Ethidium bromide accumulation assay in hP2X7-expressing HEK293 cells; format: cell-based; conditions: 10 μM compound with BzATP
# T1 construct: expressed in transfected cells
# T1 sequence (Q99572 1-595): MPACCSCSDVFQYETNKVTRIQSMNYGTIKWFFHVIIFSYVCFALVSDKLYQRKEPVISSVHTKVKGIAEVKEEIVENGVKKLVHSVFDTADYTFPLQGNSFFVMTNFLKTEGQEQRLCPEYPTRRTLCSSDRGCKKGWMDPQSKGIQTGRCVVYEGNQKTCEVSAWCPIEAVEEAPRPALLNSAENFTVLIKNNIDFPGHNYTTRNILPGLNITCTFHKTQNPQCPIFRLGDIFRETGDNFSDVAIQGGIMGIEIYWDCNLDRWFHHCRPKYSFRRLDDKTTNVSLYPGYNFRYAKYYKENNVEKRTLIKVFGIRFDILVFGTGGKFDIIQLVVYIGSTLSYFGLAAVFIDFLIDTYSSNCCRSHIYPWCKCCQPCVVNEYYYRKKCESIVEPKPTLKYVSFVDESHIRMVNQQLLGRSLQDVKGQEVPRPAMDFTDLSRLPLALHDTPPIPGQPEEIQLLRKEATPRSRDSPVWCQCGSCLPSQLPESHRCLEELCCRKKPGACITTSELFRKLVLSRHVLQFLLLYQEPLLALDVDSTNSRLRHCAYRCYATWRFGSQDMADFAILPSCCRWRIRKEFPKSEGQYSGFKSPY
# Method: 1-2. Ethidium Bromide Accumulation Assay in hP2X-Expressing HEK293 Cells
# HEK293 cells that are stably transfected with the human P2X7 receptor (P2X7R) were kept under a humidified atmosphere of 5% CO2 at 37° C. in DMEM supplemented with 10% (v/v) FBS, 2 mM L-glutamine and antibiotics (50 U/mL penicillin and 50 μg/ml streptomycin). BzATP-induced pore formation was measured using a fluorescence plate reader by measuring cellular absorption of ethidium in the hP2X7-expressing HEK293 cells. The hP2X7-expressing HEK293 cells were washed once with an appropriate assay buffer, and the buffer was also removed before subsequent analysis. All studies were performed at room temperature and the final assay volume was 100 μL. The cells were resuspended at 2.5×10^6 cells/mL in assay buffers consisting of 10 mM HEPES, 5 mM N-methyl-D-glucamine, 5.6 mM KCl, 10 mM D-glucose and 0.5 mM CaCl2 (pH 7.4) and supplemented with 280 mM sucrose or 140 mM NaCl.
# In order to determine the antagonistic activity of the 5-hydroxyl-pyridine derivatives of the present invention and the reference compound (AZD9056), these compounds were added to the cells at a concentration of 10 μM with BzATP without pre-incubation. The cells were incubated for 2 hours under a humidified atmosphere of 5% CO2 at 37° C., and the absorption of ethidium dye was observed by measuring fluorescence with a Bio-Tek instrument FL600 fluorescent plate reader (excitation wavelength of 530 nm and emission wavelength of 590 nm). The results are expressed as a percentage relative to the maximum cumulative amount of ethidium bromide when stimulated with BzATP alone.
# In order to investigate the structure-activity relationship (SAR) of the compounds synthesized in the present invention, the antagonistic activity was evaluated by a two-electrode voltage clamp (TEVC) assay in Xenopus oocytes expressing the recombinant mP2X1 or hP2X3, respectively. The hP2X7R antagonistic activity was assessed using an ethidium ion accumulation assay in human HEK293 cells stably expressing the recombinant human P2X7R.
# [2] = test system: neuropathic pain (NeP) animal models; assay: Efficacy in neuropathic pain (NeP) animal models, model not specified; format: in vivo, rat
# Method: (§1) 3-1. Evaluation of In Vivo Efficacy
# (§2) The antiallodynic effects (mechanical allodynia) were evaluated using rats according to a previously reported protocol. In order to evaluate the withdrawal threshold, rats (naive, SNL and CIPN) were placed on a plastic mesh floor of individual plastic cages. The rats were allowed to acclimate to the environment for 30 minutes and examined after intrathecal or intravenous administration to the caudal vein. The control group received the same volume of vehicle (intrathecal administration of saline or DMSO, intravenous administration of DMSO:PEG:PBS=1:6:3 v/v %) as the experimental groups. Evaluation of the mechanical withdrawal threshold was measured in responses to the application of calibrated von Frey filaments (Stoelting, Wood Dale, Ill., USA) to the hind paw of the rats through the holes on the mesh floor underneath the cage using the ‘up and down method’. A series of eight von Frey filaments (0.4, 0.7, 1.2, 2.0, 3.6, 5.5, 8.5, and 15 g) was applied perpendicular to the sole of the hind paw for 5 seconds while the head was bent. Active withdrawal or flinching of the paw was considered as a positive reaction. The absence of response in the rats, when a pressure was applied to 15 g von Frey filament, was used as a cut-off value. Only rats with definite allodynia (i.e., mechanical withdrawal threshold: less than 4 g after SNL or less than 5 g after CIPN) were tested. The rats after termination of the experiments were euthanized through an overdose of sevoflurane. The withdrawal threshold data for the von Frey filament test was calculated as % MPE (maximum possible effect) based on the following Calculation Equation: % MPE=[(Post-drug threshold−Post-injured baseline threshold)/(Cutoff threshold−post-injured baseline threshold)×100]. Dose-response data were analyzed using Scheffe's post hoc test and one-way analysis of variance (ANOVA).
# [3] = Metabolic stability in microsomes, human; format: in vitro ADME; conditions: 30 min
# [4] = Metabolic stability in microsomes, mouse; format: in vitro ADME; conditions: 30 min
# [5] = Plasma protein binding by rapid equilibrium dialysis, human; format: in vitro ADME; conditions: plasma (50% in PBS)
# Method: Plasma protein binding was measured by rapid equilibrium dialysis (RED). A DMSO stock solution of the compounds was prepared at a concentration of 10 mM and diluted to a concentration of […] with 50% plasma in phosphate buffered saline (PBS, pH 7.4). Plasma samples (100 μL) and PBS (300 μL) were added to the sample chamber and the buffer chamber, respectively, after which the RED device was turn on and the samples were incubated in a shaking incubator at 37° C. for 4 hours. After dialysis, 50 μl aliquots were collected from each side of the chamber. 50 μl of blank plasma was added to the buffer sample, and 50 μl of PBS was also added to the plasma sample. 200 μL of acetonitrile containing an internal standard was added to each sample. The samples were centrifuged at 3200 g for 20 minutes at 4° C., and the supernatants were obtained and analyzed by an LC-MS/MS system. The plasma protein binding rate was calculated as follows: Free form (%)=(Buffer chamber/Plasma chamber)×100 Bound form (%)=100−Free form (%).
# [6] = test system: SNL rats (mechanical allodynia); assay: Antiallodynic effect (von Frey) in spinal nerve ligation (SNL) rats; format: in vivo, rat
# Method: as §1, §2
# [7] = pH 7.4, human plasma, read-out: Plasma protein binding rate, Human (converted)
SMILES,hP2X7 % inhibition of ethidium bromide accumulation [1],in vivo efficacy in early animal experiments ([2]; early animal experiments),"Metabolic stability, microsomes, Human [3] [% remaining after 30 min]","Metabolic stability, microsomes, Mouse [4] [% remaining after 30 min]","fraction unbound at 4 h, 5 µM [5, 7]","ED50 ([6]; Rattus norvegicus, antiallodynic effect, intravenous administration) [mg/kg]","fraction unbound at 4 h, 5 µM ([5]; pH 7.4, species not given, read-out: plasma protein binding)","antiallodynic efficacy, MPE % ([6]; 1 μg, intrathecal administration) [%]","paw withdrawal threshold ([6]; intrathecal administration, von Frey)","antiallodynic effect upon intraperitoneal and intravenous administration ([2]; NeP animal models, i.p. and i.v.)",antiallodynic effect upon intramedullary administration ([2]; NeP rats)
"CCCc1nc(CCc2ccc(OC)cc2)c(C(=O)O)c(C(=O)O)c1O [Compound 13d, 5-Hydroxy-2-(4-methoxyphenethyl)-6-propylpyridine-3,4-dicarboxylic acid]",inactive,weak in vivo efficacy,–,–,–,–,–,–,–,–,–
"CCCc1nc(Cc2cccc(Oc3ccccc3)c2)c(C)c(C(=O)OC)c1O [Compound 28, Methyl 3-hydroxy-5-methyl-6-(3-phenoxybenzyl)-2-propylisonicotinate]",–,–,0,35,0.005,2.62,–,–,–,–,–
"CCCc1nc(Cc2cccc(Oc3ccccc3)c2)c(C)c(C(=O)O)c1O [Compound 29, 3-Hydroxy-5-methyl-6-(3-phenoxybenzyl)-2-propylisonicotinic acid]",Inactive,–,3,2,0.001 ± 6.01e-07,–,< 0.01,58±19,increase in paw withdrawal threshold,no antiallodynic effect; also recorded: no pharmacological activity was observed; also recorded: did not provide an antiallodynic effect,potent antiallodynic effect
